This is an account of results in US20240254129A1, “HETEROCYCLIC COMPOUNDS AND USES THEREOF” (Kumquat Biosciences Inc., priority 2021, published 2024).

By IC50 is commonly meant the concentration needed to halve the response being measured.

One test addresses T1, wildtype Kras / hSOS1 (Homo sapiens, UniProt P01116).
T1 construct: made in house; host or cells: E. coli BL21 (DE3)
Description: HTRF assay, wildtype Kras / SOS1 interaction. It is filed as binding. Conditions: read-out: IC50 against wildtype Kras. In outline: (§1)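 Buffer ~5 mM HEPES pH 7.4, ~150 mM NaCl, ~1 mM DTT, 0.05% BSA, 0.0025% Igepal. Cpd in DMSO + Ras/donor mix + SOS1/acceptor mix; ≥10 min; HTRF 665/620 ratio → IC50.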
(In general: Time-resolved FRET reads energy transfer from a long-lived donor to a nearby acceptor.)

Test [1] addresses GST-tagged K-Ras mutant / His-tagged hSOS1 (Homo sapiens, UniProt P01116). Description: HTRF assay, K-Ras mutant / SOS1 interaction. It is filed as binding. Conditions: read-out: IC50 against mutant Kras. In outline: as §1
Where [2] appears, read: compound nos. 102-196, general methodology of example 5.

Like-named read-outs stand apart in the source and are kept apart here.

T1 sequence (P01116 1-188 isoform P01116-2): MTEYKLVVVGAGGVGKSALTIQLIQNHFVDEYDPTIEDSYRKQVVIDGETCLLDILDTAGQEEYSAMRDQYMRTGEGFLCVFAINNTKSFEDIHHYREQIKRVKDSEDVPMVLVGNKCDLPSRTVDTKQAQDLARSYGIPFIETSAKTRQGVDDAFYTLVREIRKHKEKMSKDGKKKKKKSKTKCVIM
GST-tagged K-Ras mutant / His-tagged hSOS1, sequence (P01116 whole entry G12D, form open): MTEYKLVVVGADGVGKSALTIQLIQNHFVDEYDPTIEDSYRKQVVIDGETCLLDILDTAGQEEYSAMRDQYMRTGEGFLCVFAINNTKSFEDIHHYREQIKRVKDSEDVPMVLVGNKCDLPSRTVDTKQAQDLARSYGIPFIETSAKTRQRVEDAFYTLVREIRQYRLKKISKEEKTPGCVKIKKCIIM

With `Cc1cc2[nH]ncc2c(-c2c(Cl)cc3c(N4CC5CCC(C4)N5)nc(OC[C@@]45CCCN4C[C@H](F)C5)nc3c2F)c1Cl` [Compound 425, 4-(3,8-diazabicyclo[3.2.1]-octan-3-yl)-6-chloro-7-(5-chloro-6-methyl-1H-indazol-4-yl)-8-fluoro-2-(((2R,7aS)-2-fluorotetrahydro-1H-pyrrolizin-7a(5H)-yl)meth-oxy)quinazoline], the values for the 50% inhibitory concentration (IC50) (at wildtype Kras / hSOS1 (compound nos. 401-703); in test [1] (compound nos. 401-703)) were below 500 nM and above 500 nM, respectively.

As to `N#Cc1c(N)sc2c(F)ccc(-c3c(Cl)cc4c(N5CCCOCC5)nc(OC[C@@]56CCCN5C[C@H](F)C6)nc4c3F)c12` [Compound 598, 2-amino-4-(6-chloro-8-fluoro-2-(((2R,7aS)-2-fluorotetrahydro-1H-pyrrol-izin-7a(5H)-yl)methoxy)-4-(1,4-oxazepan-4-yl)quin-azolin-7-yl)-7-fluorobenzo-[b]thiophene-3-carbonitrile], the values for the IC50 (on wildtype Kras / hSOS1 (compound nos. 401-703); in test [1] (compound nos. 401-703)) were above 500 nM and below 500 nM, respectively.

With `Oc1cc(CN2CCc3nc(OCC45CCCN4CCC5)nc(N4CC5CCC(C4)N5)c3CC2)c2ccccc2c1` [Compound 658, 4-((4-(3,8-diazabicyclo-[3.2.1]-octan-3-yl)-2-((tetrahydro-1H-pyrrolizin-7a(5H)-yl)methoxy)-5,6,8,9-tetrahydro-7H-pyrimido-[4,5-d]azepin-7-yl)methyl)-naphthalen-2-ol], the IC50 (on wildtype Kras / hSOS1 (compound nos. 401-703); in test [1] (compound nos. 401-703)) was above 500 nM in each case.

With `N#Cc1c(N)sc2c(F)ccc(-c3c(Cl)cc4c(N5CCCC6(CNC6)C5)nc(OC[C@@]56CCCN5C[C@H](F)C6)nc4c3F)c12` [Compound 526, 2-amino-4-(6-chloro-8-fluoro-2-(((2R,7aS)-2-fluorotetrahydro-1H-pyrrol-izin-7a(5H)-yl)methoxy)-4-(2,6-diazaspiro[3.5]nonan-6-yl)quinazolin-7-yl)-7-fluorobenzo[b]thiophene-3-carbonitrile], the values for the concentration for half-maximal inhibition (IC50) (at wildtype Kras / hSOS1 (compound nos. 401-703); in test [1] (compound nos. 401-703)) were above 500 nM and below 500 nM, respectively.

On to `CN1CCC[C@H]1COc1nc(N2CCNCC(F)(F)C2)c2cc(Cl)c(-c3cccc4sc(O)nc34)c(F)c2n1` [Compound 177, 4-(6-chloro-4-(6,6-difluoro-1,4-diazepan-1-yl)-8-fluoro-2-(((S)-1-methylpyrrolidin-2-yl)methoxy)quinazolin-7-yl)benzo[d]thiazol-2-ol], for which the IC50 (on wildtype Kras / hSOS1 (setting [2]); in test [1] (setting [2])) was above 500 nM each time.

As for `Nc1nc2c(-c3c(Cl)cc4c(N5CCC6CCC(C5)N6)nc(OC[C@@]56CCCN5C[C@H](F)C6)nc4c3F)ccc(F)c2s1` (stereo partly drawn) [Compound 684, 4-(4-(3,9-diazabicyclo-[4.2.1]nonan-3-yl)-6-chloro-8-fluoro-2-(((2R,7aS)-2-fluorotetrahydro-1H-pyrrol-izin-7a(5H)-yl)methoxy)-quinazolin-7-yl)-7-fluoro-benzo[d]thiazol-2-amine], the figures for the half-inhibitory concentration (IC50) (at wildtype Kras / hSOS1 (compound nos. 401-703); in test [1] (compound nos. 401-703)) were above 500 nM and below 500 nM, respectively.

On to `Cc1ccc2cnn(CC#N)c2c1-c1c(Cl)cc2c(N3CC4CCC(C3)N4)nc(OC[C@@]34CCCN3C[C@H](F)C4)nc2c1F` [Compound 549, 2-(7-(4-(3,8-diazabicyclo-[3.2.1]octan-3-yl)-6-chloro-8-fluoro-2-(((2R,7aS)-2-fluorotetrahydro-1H-pyrrol-izin-7a(5H)-yl)methoxy)-quinazolin-7-yl)-6-methyl-1H-indazol-1-yl)acetonitrile], for which the IC50 (on wildtype Kras / hSOS1 (compound nos. 401-703); in test [1] (compound nos. 401-703)) was above 500 nM in each case.

As for `Nc1nc2c(-c3c(Cl)cc4c(N5CC6CCC(C5)N6)nc(OCC56CCCN5CCC6)nc4c3F)cc(F)cc2s1` [Compound 542, 4-(4-(3,8-diazabicyclo-[3.2.1]octan-3-yl)-6-chloro-8-fluoro-2-((tetrahydro-1H-pyrrolizin-7a(5H)-yl)meth-oxy)quinazolin-7-yl)-6-fluorobenzo[d]thiazol-2-amine], the IC50 at wildtype Kras / hSOS1 (compound nos. 401-703) is above 500 nM; in test [1] (compound nos. 401-703), below 500 nM.

Take `CN1CCC[C@H]1COc1nc(N2CCNCC3(CC3)C2)c2cc(Cl)c(-c3cccc4sc(N)nc34)c(F)c2n1` [Compound 128, 4-(6-chloro-8-fluoro-2-(((S)-1-methylpyrrolidin-2-yl)-methoxy)-4-(5,8-diazaspiro-[2.6]nonan-5-yl)quinazolin-7-yl)benzo[d]thiazol-2-amine]: the IC50 (at wildtype Kras / hSOS1 (setting [2]); in test [1] (setting [2])) was above 500 nM in each case.

Consider `CN1CCC[C@H]1COc1nc(N2[C@@H]3CC[C@H]2CNC3)c2cc(Cl)c(-c3cccc4sc(N)nc34)c(F)c2n1` [Compound 306, 4-(4-((1R,5S)-3,8-diaza-bicyclo[3.2.1]octan-8-yl)-6-chloro-8-fluoro-2-(((S)-1-methylpyrrolidin-2-yl)meth-oxy)quinazolin-7-yl)benzo-[d]thiazol-2-amine], for which the IC50 (at wildtype Kras / hSOS1 (compound nos. 301-306); in test [1] (compound nos. 301-306)) was below 1500 nM each time.

In the case of `Nc1nc2c(-c3c(Cl)cc4c(N5CCC[C@@H](N)CC5)nc(OC[C@@]56CCCN5C[C@H](F)C6)nc4c3F)ccc(F)c2s1` [Compound 434, 4-(4-((R)-4-aminoazepan-1-yl)-6-chloro-8-fluoro-2-(((2R,7aS)-2-fluorotetra-hydro-1H-pyrrolizin-7a(5H)-yl)methoxy)quinazolin-7-yl)-7-fluorobenzo[d]thiazol-2-amine], the IC50 (on wildtype Kras / hSOS1 (compound nos. 401-703); in test [1] (compound nos. 401-703)) was below 500 nM throughout.

On to `CN1CCC(COc2nc(N3CCNCC(F)(F)C3)c3cc(Cl)c(-c4cccc5sc(N)nc45)c(F)c3n2)CC1` [Compound 134, 4-(6-chloro-4-(6,6-difluoro-1,4-diazepan-1-yl)-8-fluoro-2-((1-methylpiperidin-4-yl)-methoxy)quinazolin-7-yl)-benzo[d]thiazol-2-amine], for which the values for the IC50 (on wildtype Kras / hSOS1 (setting [2]); in test [1] (setting [2])) were below 500 nM and above 500 nM, respectively.

On to `CN1CCC[C@H]1COc1nc(N2CCNCC(F)(F)C2)c2cc(Cl)c(-c3cccc4nc(N)sc34)c(F)c2n1` [Compound 184, 7-(6-chloro-4-(6,6-difluoro-1,4-diazepan-1-yl)-8-fluoro-2-(((S)-1-methylpyrrolidin-2-yl)methoxy)quinazolin-7-yl)benzo[d]thiazol-2-amine], for which the IC50 (at wildtype Kras / hSOS1 (setting [2]); in test [1] (setting [2])) was above 500 nM throughout.

As for `Cc1ccc2[nH]nc(N)c2c1-c1c(Cl)cc2c(N3CCNCC(F)(F)C3)nc(OC[C@@H]3CCCN3C)nc2c1F` [Compound 171, 4-(6-chloro-4-(6,6-difluoro-1,4-diazepan-1-yl)-8-fluoro-2-(((S)-1-methylpyrrolidin-2-yl)methoxy)quinazolin-7-yl)-5-methyl-1H-indazol-3-amine], the IC50 (on wildtype Kras / hSOS1 (setting [2]); in test [1] (setting [2])) was above 500 nM each time.

For `CC(C)CN1CCCN(c2nc(OCC34CCCN3CCC4)nc3c(F)c(-c4ccc(F)c5sc(N)nc45)c(Cl)cc23)CC1` [Compound 460, 4-(6-chloro-8-fluoro-4-(4-isobutyl-1,4-diazepan-1-yl)-2-((tetrahydro-1H-pyrrolizin-7a(5H)-yl)methoxy)quin-azolin-7-yl)-7-fluorobenzo-[d]thiazol-2-amine-], the IC50 (at wildtype Kras / hSOS1 (compound nos. 401-703); in test [1] (compound nos. 401-703)) was below 500 nM in each case.

`CN1CCC[C@H]1COc1nc(N2CCCCC(C(N)=O)C2)c2cc(Cl)c(-c3cccc4sc(N)nc34)c(F)c2n1` (stereo partly drawn) [Compound 700, 1-(7-(2-aminobenzo[d]-thiazol-4-yl)-6-chloro-8-fluoro-2-(((S)-1-methyl-pyrrolidin-2-yl)methoxy)-quinazolin-4-yl)azepane-3-carboxamide]: the concentration for half-maximal inhibition (IC50) on wildtype Kras / hSOS1 (compound nos. 401-703) is above 500 nM; in test [1] (compound nos. 401-703) it was below 500 nM.
